{
  "source": "patent US8318812B2",
  "about": "“Therapeutic agents for the treatment of lymphoid malignancies” (The Ohio State University Research Foundation, priority 2006, dated 2012)",
  "key": {"ERK1/2": {"system": "ERK1/2", "experiment": "Western blot of ERK1/2 phosphorylation in Mino cells", "type": "cell-based, Human", "method": "Binding of FTY720 accelerates homing of peripheral lymphocytes to lymph node and activation of […] leads to extracellular signal-related kinase 1/2 (ERK1/2) phosphorylation. To determine if FTY720 influenced phosphorylation status of ERK-1, Mino cells were treated with FTY720 and the ERK1/2 phosphorylation status was analyzed by westernblot analysis using phospho ERK-1/2 and ERK1/2 antibodies. […] Similar FTY720 induced time dependent phosphorylation of ERK1/2 was also observed in Jeko cell line (Data not shown). FTY720 induced activation Ras-Raf-MAP kinase signaling pathway resulting in activation of serine/threonine kinase may contribute to ERK1/2 phosphorylation. Consistent with hypothesis ERK1/2 phosphorylation has been reported to occur in cells treated with Sphingosie 1-phosphate, that shares structural similarity to FTY72014. The role of FTY720 induced Erk1/2 phosphorylation in either toxicity, deregulation of the proteins such as Cyclin D1 or Akt and/or accumulation cells in G1 with concomitant decrease in S phase remains to be tested. Nevertheless these studies have identified Cyclin D1 and Akt proteins as two potential biomarkers for FTY720 responsiveness in MCL patient cells."}, "Jeko cells": {"system": "Jeko cells", "experiment": "Annexin V/PI toxicity in Jeko cells", "type": "cell-based", "conditions": "Homo sapiens, WinNolin sigmoid inhibitory model", "method": "Primary MCL cells were isolated from PBMC (with informed patient consent under a protocol approved by IRB) as described before. All the MCL patients were identified as outlined by the World Health Organization (WHO) classification. Human mantle cell lymphoma patient cell lines (Mino and Jeko) were obtained from Dr. Raymond Lai. Primary cells or MCL cell lines were incubated in RPMI 1640 media, supplemented with 10%-20% heat-inactivated fetal bovine serum, 2 mM L-glutamine and penicillin (100 U/mL)/streptomycin ([…]) at 37° C. in an atmosphere of 5% CO2. FTY720 was synthesized as previously described. Toxicity was determined by flow cytometry using Annexin-V-FITC and Propidium Iodide (PI) staining. Apoptotic cells were identified as Annexin-V+ and/or PI+ cells. Cells excluding both FITC and PI were considered viable. Western Blotting was performed as described previously using indicated antibodies. The PARP (Ab-2) and Caspase 9 antibodies were purchased from Oncogene/Calbiochem/EMD Biosciences (San Diego, Calif.). Cyclin D1, Akt, Actin, Mcl-1, p-ERK, ERK and Bcl-2 were obtained from Santa Cruz biotech (Santa Cruz, Calif.).\nSeveral therapeutic agents, including fludarabine, chlorambucil, 2-chloro-2-deoxyadenosine and glucocorticoids, induce toxicity in B cell malignancies through activating caspases, the cysteine proteases of CED3/ICE family. […]"}, "Raji cells": {"system": "Raji cells", "experiment": "Raji disseminated lymphoma/leukemia SCID mouse xenograft model", "type": "in vivo, SCID mice", "method": "In vivo therapeutic efficacy evaluation in a xenograft model: The in-vivo evaluation of FTY720 was carried out using the disseminated lymphoma bearing SCID mouse xenograft model. This model was generated using human Raji B cell line injected into SCID mice as previously described. Raji cells were cultured in RPMI1640+10% FBS. Confluent cultures with >95% viability were confirmed to express human CD19 by flow cytometry. […] female 6-8 week-old C.B.-17 SCID mice (Taconic Farm, Germantown, N.Y.) were injected with 2×10^6 cells intravenously (i.v) in 200 ul sterile PBS via the tail vein. Seventy two hours post inoculation, the animals were divided into 4 equal treatment groups. […] All the animals were monitored daily for signs of illness and sacrificed immediately if hind limb paralysis, respiratory distress or 30% body weight loss was noted. Body weight was measured once every week. […] The presences of the CD19^+ cells were evaluated in the bone marrow of these mice by flow cytometry. […]"}},
  "data": [
    {"smiles": "CCCCCCCCc1ccc(CCC(N)(CO)CO)cc1.Cl", "note": "[FTY720, 2-Amino-2-[2-(4-octylphenyl)ethyl]propane 1,3-diol hydrochloride]", "values": [
      {"measurement": "earliest time of ERK1/2 phosphorylation", "setting": "ERK1/2", "value": 2, "unit": "h"},
      {"measurement": "time of maximal ERK1/2 phosphorylation", "setting": "ERK1/2", "value": 4, "unit": "h"},
      {"measurement": "IC50", "setting": "Jeko cells", "value": 4.46, "unit": "µM"},
      {"measurement": "median survival time", "setting": "Raji cells; FTY720 5 mg/kg every day for 2 weeks i.p., 95% CI 39-53", "value": 47, "unit": "days"},
      {"measurement": "mice surviving without signs of disease", "setting": "Raji cells; after a follow-up period of 200 days", "value": "4 of the 12"}
    ]}
  ]
}
